Test [1] concerns rat pituitary cell. The note with it: LH-releasing activity compared to that produced by 3 nM LH-RH; peptide infused for 3 minutes.
Experimental: Ability of compounds to influence LH release in vitro is assayed by using a superfused rat pituitary cell system [S. Vigh and A. V. Schally, Peptides, 5 Suppl.
LH-releasing effect of compounds is determined as follows: each peptide is perfused through the cells for 3 min (1 ml perfusate) at 20-100 pM. LH content of 1 ml fractions collected is determined by radioimmunoassay (RIA). Potency of peptides is compared to that of 3 nM LHRH perfused similarly.
The peptide was infused for 3 minutes at various concentration, and the amount of LH released was compared to that released by 3 nM LHRH.
For test [2], the system named is membrane receptors of human breast cancer cells. In words: Receptor binding affinity for human breast cancer cell membranes, labelled [D-Trp6]LHRH as ligand. As for the experimental part:
Affinity for peptides to human breast cancer cell membranes is determined by using labelled LHRH and [D-Trp⁶]LHRH. The assay is carried out similarly to that described by T. Kadar et al., Proc. Natl. Acad. Sci. USA, 85, 890-894 (1988) and M. Fekete et al., Endocrinology, 124, 946-955 (1989).
(§1) Table 2 presents the antiovulatory activity and human breast cancer cell membrane receptor binding affinity of the claimed compounds having LHRH-inhibiting properties. The inhibitory action was determined in vivo, in 4-day cycling rats as described [A. Corbin and C. W. Beattie, Endocr. Res. Commun., 2, 1-23 (1975)].

Test [3] relates to MCF-7 human breast cancer cell line. Put plainly: Cytotoxicity test: inhibition of 3H-thymidine incorporation into DNA. The class given is cell-based. The protocol:
Ability of peptides of Formula I to inhibit incorporation of [³H]thymidine into DNA of monolayer cultures the human mammary tumor cell line MCF-7 is assayed as described [V. K. Sondak et al., Cancer Research, 44, 1725-1728 (1984); F. Holzel et al., J. Cancer Res. Clin. Oncol. 109, 217-226 (1985); M. Albert et al., J. Cancer Res. Clin. Oncol. 109, 210-216 (1985)].
200,000 cells in 200 µl of […] + 2% CFBS were incubated with 1,5 or 10 µg cytotoxic analogs for 3 hours or 23 hours then 1 µCi ³H-thymidine added and incubated an additional 60 min. DNA extracted with 1 N perchloric acid and the radioactivity measured.
Background: Dividing cells build labelled thymidine or BrdU into new DNA.

For test [4], the system named is 4-day-cycling rats. Put plainly: In vivo antiovulatory activity. The note with it: 10 µg per rat. As for the experimental part: This activity of the peptides is determined in 4-day-cycling rats as described [A. Corbin and C. W. Beattie, Endocr. Res. Commun., 2, 1-23 (1975)].
as §1

In test [5] the test system is human mammary cell line MDA-MB-231. The note with it: 10µg dose; cited from earlier work.
[6] abbreviates: Table 2, ¹²⁵I-[D-Trp]⁶ LHRH used as the labelled ligand.
The mark [7] stands for this setting: Table 1, ¹²⁵I-[D-Trp]⁶LHRH used as labelled ligand.

Marks after values point to notes of the source that are not given here.

Consider `CC(C)C[C@H](NC(=O)[C@@H](CCCCNC(=O)CCCC(=O)OCc1ccc2c(c1)C(=O)c1ccccc1C2=O)NC(=O)[C@H](Cc1ccc(O)cc1)NC(=O)[C@H](CO)NC(=O)[C@H](Cc1c[nH]c2ccccc12)NC(=O)[C@H](Cc1c[nH]cn1)NC(=O)[C@@H]1CCC(=O)N1)C(=O)N[C@@H](CCCNC(=N)N)C(=O)N1CCC[C@H]1C(=O)NCC(N)=O` [compound 1, pGlu-His-Trp-Ser-Tyr-D-Lys(HMAQG)-Leu-Arg-Pro-Gly-NH₂], for which the “Relative Activity” value in test [1] was 35.

For orientation: % Inhibition means the drop in the measured response relative to a control, in per cent. Read a high % Inhibition as a strong effect. For “Ac-Nal(2)-D-Phe(4Cl)-D-Pal(3)-Ser-Arg-D-Lys[A₂pr(HMAQG)₂]-Leu-Arg-Pro-D-Ala-NH₂ [compound 4]”, the “Affinity Constant Ka1” value in test [2] (setting [6]) turned out to be 2.28 nM⁻¹. For the same molecule, in test [3] (Dose 1 µg/ml), the “% Inhibition at 4 hrs” value was 31** % and the “% Inhibition at 24 hrs” value was 15%. In test [3] (Dose 10 µg/ml), the “% Inhibition at 4 hrs” value was 28** % and the “% Inhibition at 24 hrs” value was 40** %. Further, the “%Ovulation Blockade” value in test [4] is recorded as 40%.

As for “Ac-Nal(2)-D-Phe(4Cl)-D-Trp-Ser-Arg-D-Lys[A₂pr(HMAQG)₂]-Leu-Arg-Pro-D-Ala-NH₂ [compound 3]”, the “Affinity Constant Ka1” value in test [2] (setting [6]) is given as 7.05 nM⁻¹. In test [2] (setting [6]), the “Affinity Constant Ka2” value came to 8.6 µM⁻¹. For the same molecule, the “% Inhibition at 24 hrs” value is reported as 3% in test [3] (Dose 1 µg/ml) and 11% in test [3] (Dose 10 µg/ml). In addition, the “%Ovulation Blockade” value in test [4] is 0%.

Consider “pGlu-His-Trp-Ser-Tyr-D-Lys(MTX)-Leu-Arg-Pro-Gly-NH₂ [2A]”, for which, in test [2] (setting [7]), the “Affinity Constant Ka1” value was found to be 5.42 nM⁻¹ and the “Affinity Constant Ka2” value is 1.59 µM⁻¹.

As for “pGlu-His-Trp-Ser-Tyr-D-Lys(MTX)-Leu-Arg-Pro-Gly-NH₂ [2B]”, the “Affinity Constant Ka1” value in test [2] (setting [7]) is reported as 0.63 nM⁻¹.

With “pGlu-His-Trp-Ser-Tyr-D-Lys[Ahx-A₂bu(SAL)₂(Cu)]-Leu-Arg-Pro-Gly-NH₂”, the “inhibits the [³H]thymidine incorporation into DNA” value in test [5] was 87%.
